What is called IC50 is the concentration needed to halve the response being measured.

The nature of this experiment: APP processing: AlphaLisa assay of secreted Aβ40 and Aβ42 from SP4CT cells. The experiment is classed as cell-based. To be noted: Homo sapiens, SH-SY5Y cells expressing amyloid β protein (SP4CT cells). The method in brief: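 Secreted Aβ40 and Aβ42 were quantified separately by AlphaLisa luminescence, pairing streptavidin donor beads bearing biotinylated 4G8 with G210 or 12F4 acceptor beads. Samples were conditioned media from compound-treated SH-SY5Y cells expressing amyloid β protein (SP4CT).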
(In general: In Alpha technology, singlet oxygen from a donor bead excites a nearby acceptor bead.)

The mark [1] stands for this setting: read-out: IC50, inhibition of production of Aβ40 peptide.
[2] abbreviates: read-out: IC50, inhibition of production of Aβ42 peptide.

Each structure is given as a SMILES string. Like-named read-outs stand apart in the source and are kept apart here. Where only a bound is given, the exact number is not on record here.

Take `CCn1nc(-c2cccc(C(C)(C)NS(=O)(=O)CC(F)(F)F)c2)cc1Oc1ccc(CNCc2ccccc2)cc1` [Example 79, N-{1-[3-(5-{4-[(benzylamino)methyl]phenoxy}-1-ethyl-1H-pyrazol-3-yl)phenyl]-1-methylethyl}-2,2,2-trifluoroethanesulfonamide]: the IC50 is below 200 nM under setting [1] and below 200 nM under setting [2].
Take `CCn1nc(Oc2ccc(C(F)(F)F)cc2)c(Br)c1-c1cccc(C(C)(C)NS(=O)(=O)CC(F)(F)F)c1` [Example 114, N-[2-(3-{4-Bromo-1-ethyl-3-[4-(trifluoromethyl)phenoxy]-1H-pyrazol-5-yl}phenyl)propan-2-yl]-2,2,2-trifluoroethanesulfonamide]: the IC50 is, setting by setting: under setting [1], below 200 nM; under setting [2], below 200 nM.
In the case of `CCn1nc(Oc2ccc(C(F)(F)F)cc2)cc1-c1cccc(C(C)(C)NS(=O)(=O)NC2CCCC2)c1` [Example 18, N-cyclopentyl-N′-[1-(3-{1-ethyl-3-[4-(trifluoromethyl)phenoxy]-H-pyrazol-5-yl}phenyl)-1-methylethyl]sulfamide], the 50% inhibitory concentration (IC50) under setting [1] was below 200 nM and the IC50 under setting [2] was below 200 nM.
Consider `CCn1nc(-c2cncc(C3(NS(=O)(=O)NCC(F)(F)F)COC3)c2)cc1Oc1ccc(C(F)(F)F)cc1` [Example 127, N-[3-(5-{1-ethyl-5-[4-(trifluoromethyl)phenoxy]-1H-pyrazol-3-yl}pyridine-3-yl)oxetan-3-yl]-N′-(2,2,2-trifluoroethyl)sulfamide], for which the IC50 is, setting by setting: under setting [1], below 200 nM; under setting [2], below 200 nM.
For the compound `CCn1nc(-c2cccc(C(C)(C)NS(=O)(=O)CC(F)(F)F)c2)c(C#N)c1Oc1ccc(C(F)(F)F)cc1` [Example 117, N-[2-(3-{4-cyano-1-ethyl-5-[4-(trifluoromethyl)phenoxy]-1H-pyrazol-3-yl}phenyl)propan-2-yl]-2,2,2-trifluoroethanesulfonamide], the IC50 reads like this: under setting [1], below 200 nM; under setting [2], below 200 nM.
As to `CCCNS(=O)(=O)NC(C)(C)c1cccc(-c2cc(Oc3ccc(C(F)(F)F)cc3)n(CC)n2)c1` [Example 8, N-[1-(3-{1-ethyl-5-[4-(trifluoromethyl)phenoxy]-1H-pyrazol-3-yl}phenyl)-1-methylethyl]-N′-propylsulfamide], the IC50 is, setting by setting: under setting [1], below 200 nM; under setting [2], below 200 nM.
For the compound `CNC(=O)Cn1nc(-c2cccc(C3(NS(=O)(=O)CC(F)(F)F)COC3)c2)cc1Oc1ccc(C(F)(F)F)cc1` [Example 132, 2-[5-(4-trifluoromethylphenoxy)-3-(3-{3-[(2,2,2-trifluoroethylsulfonyl)amino]oxetan-3-yl}phenyl)-1H-pyrazol-1-yl]-N-methylacetamide], the IC50 is below 200 nM under setting [1] and below 200 nM under setting [2].
Consider `CCn1nc(Oc2ccc(C(F)(F)F)cc2)cc1-c1cccc(C2(NS(=O)(=O)NC3CCCC3)CC2)c1` [Example 29, N-cyclopentyl-N′-[1-(3-{1-ethyl-3-[4-(trifluoromethyl)phenoxy]-1H-pyrazol-5-yl}phenyl)cyclopropyl] sulfamide], for which the IC50 by setting is: under setting [1], below 200 nM; under setting [2], below 200 nM.
`CCn1nc(-c2cccc(C(C)(C)NS(=O)(=O)CC(F)(F)F)c2)cc1Oc1ccccc1F` [Example 7, N-(1-{3-[1-ethyl-5-(2-fluorophenoxy)-1H-pyrazol-3-yl]phenyl}-1-methylethyl)-2,2,2-trifluoroethanesulfonamide]: the concentration for half-maximal inhibition (IC50) is below 200 nM under setting [1] and below 200 nM under setting [2].
On to `CCn1nc(-c2cccc(C(C)(C)NS(=O)(=O)CC(F)(F)F)c2)cc1Oc1ccc(C#N)cc1` [Example 108, N-(1-{3-[5-(4-cyanophenoxy)-1-ethyl-1H-pyrazol-3-yl]phenyl}-1-methylethyl)-2,2,2-trifluoroethanesulfonamide], for which the 50% inhibitory concentration (IC50) under setting [1] is below 200 nM and the IC50 under setting [2] was below 200 nM.
For the compound `CCn1nc(-c2cccc(C(C)(C)NS(=O)(=O)CC(F)(F)F)c2)cc1Oc1ccc(C(C)O)cc1` (centres unmarked) [Example 65, N-[1-(3-{1-ethyl-5-[4-(1-hydroxyethyl)phenoxy]-1H-pyrazol-3-yl}phenyl)-1-methylethyl]-2,2,2-trifluoroethanesulfonamide], the IC50 is below 200 nM under setting [1] and below 200 nM under setting [2].
For `CCCNS(=O)(=O)NC1(c2cccc(-c3cc(Oc4ccc(C(F)(F)F)cc4)nn3CC)c2)CC1` [Example 33, N-[1-(3-{1-ethyl-3-[4-(trifluoromethyl)phenoxy]-1H-pyrazol-5-yl}phenyl)cyclopropyl]-N′-propylsulfamide], the IC50 is, setting by setting: under setting [1], below 200 nM; under setting [2], below 200 nM.
In the case of `CCn1nc(-c2cccc(C(C)(C)NS(=O)(=O)CC(F)(F)F)c2)c(Br)c1Oc1ccc(C(F)(F)F)cc1` [Example 115, N-[2-(3-{4-bromo-1-ethyl-5-[4-(trifluoromethyl)phenoxy]-1H-pyrazol-3-yl}phenyl)propan-2-yl]-2,2,2-trifluoroethanesulfonamide], the IC50 runs as follows: under setting [1], below 200 nM; under setting [2], below 200 nM.
For the compound `O=S(=O)(CC(F)(F)F)NC1(c2cccc(-c3cc(Oc4ccc(C(F)(F)F)cc4)n(CC4CCCCO4)n3)c2)COC1` (centres unmarked) [Example 140], the 50% inhibitory concentration (IC50) under setting [1] is below 200 nM and the IC50 under setting [2] is below 200 nM.
For `CCn1nc(-c2cccc(C(C)(C)NS(=O)(=O)CC(F)(F)F)c2)cc1Oc1ccc(CNCc2ccccn2)cc1` [Example 77, N-(1-{3-[1-ethyl-5-(4-{[(pyridin-2-ylmethyl)amino]methyl}phenoxy)-1H-pyrazol-3-yl]phenyl}-1-methylethyl)-2,2,2-trifluoroethanesulfonamide], the IC50 runs as follows: under setting [1], below 200 nM; under setting [2], below 200 nM.
`CCn1nc(Oc2ccc(C(F)(F)F)cc2)cc1-c1cccc(C2(NS(=O)(=O)NC)CC2)c1` [Example 34, N-[1-(3-{1-ethyl-3-[4-(trifluoromethyl)phenoxy]-1H-pyrazol-5-yl}phenyl)cyclopropyl]-N′-methylsulfamide]: the concentration for half-maximal inhibition (IC50) by setting is: under setting [1], below 200 nM; under setting [2], below 200 nM.
As for `CCn1nc(Oc2ccc(C(F)(F)F)cc2)cc1-c1cccc(C2(NS(=O)(=O)NCCC(F)(F)F)COC2)c1` [Example 102], the IC50 under setting [1] is below 200 nM and the half-maximal inhibitory concentration (IC50) under setting [2] is below 200 nM.
For `O=S(=O)(CC(F)(F)F)NC1(c2cccc(-c3cc(Oc4ccc(C(F)(F)F)cc4)n(CC4CCOCC4)n3)c2)COC1` [Example 139, N-(3-{3-[5-(4-trifluoromethylphenoxy)-1-(tetrahydro-2H-pyran-4-ylmethyl)-1H-pyrazol-3-yl]phenyl}oxetan-3-yl)-2,2,2-trifluoroethanesulfonamide], the IC50 is, setting by setting: under setting [1], below 200 nM; under setting [2], below 200 nM.
In the case of `CCn1nc(-c2cccc(C(C)(C)NS(=O)(=O)CC(F)(F)F)c2)cc1Oc1ccc(C(=O)C(F)(F)F)cc1` [Example 73, N-[1-(3-{1-ethyl-5-[4-(trifluoroacetyl)phenoxy]-1H-pyrazol-3-yl}phenyl)-1-methylethyl]-2,2,2-trifluoroethanesulfonamide], the 50% inhibitory concentration (IC50) is, setting by setting: under setting [1], below 200 nM; under setting [2], below 200 nM.
As for `CCn1nc(-c2cccc(C(C)(C)NS(=O)(=O)CC(F)(F)F)c2)cc1Oc1ccc(C(C)=O)cc1` [Example 69, N-(1-{3-[5-(4-acetylphenoxy)-1-ethyl-1H-pyrazol-3-yl]phenyl}-1-methylethyl)-2,2,2-trifluoroethanesulfonamide], the IC50 reads like this: under setting [1], below 200 nM; under setting [2], below 200 nM.
With `CCn1nc(-c2cccc(C3(NS(=O)(=O)CC(F)(F)F)COC3)c2)cc1Oc1ccc(C#N)cc1` [Example 128], the IC50 was below 200 nM under setting [1] and below 200 nM under setting [2].
For `CCn1nc(Oc2ccc(C(F)(F)F)cc2)cc1-c1cccc(C(C)(C)NS(=O)(=O)N2CCCCC2)c1` [Example 27, N-[1-(3-{1-ethyl-3-[4-(trifluoromethyl)phenoxy]-1H-pyrazol-5-yl}phenyl)-1 methylethyl]piperidine-1-sulfonamide], the IC50 is, setting by setting: under setting [1], below 200 nM; under setting [2], below 200 nM.
With `CCn1nc(-c2cccc(C(C)(C)NS(=O)(=O)NCC(C)C)c2)cc1Oc1ccc(C(F)(F)F)cc1` [Example 9, N-[1-(3-{1-ethyl-5-[4-(trifluoromethyl)phenoxy]-1H-pyrazol-3-yl}phenyl)-1-methylethyl]-N′-isobutylsulfamide], the concentration for half-maximal inhibition (IC50) runs as follows: under setting [1], below 200 nM; under setting [2], below 200 nM.
`CCn1nc(Oc2ccc(C(F)(F)F)cc2)cc1-c1cccc(C2(NS(=O)(=O)CC(F)(F)F)CC2)c1` [Example 31, N-[1-(3-{1-ethyl-3-[4-(trifluoromethyl)phenoxy]-1H-pyrazol-5-yl}phenyl)cyclopropyl]-2,2,2-trifluoroethanesulfonamide]: the half-maximal inhibitory concentration (IC50) was below 200 nM under setting [1] and below 200 nM under setting [2].
Consider `CCn1nc(Oc2ccc(C(F)(F)F)cc2)c(Cl)c1-c1cccc(C(C)(C)NS(=O)(=O)CC(F)(F)F)c1` [Example 113, N-[2-(3-{4-chloro-1-ethyl-3-[4-(trifluoromethyl)phenoxy]-1H-pyrazol-5-yl}phenyl)propan-2-yl]-2,2,2-trifluoroethanesulfonamide], for which the half-maximal inhibitory concentration (IC50) was below 200 nM under setting [1] and below 200 nM under setting [2].
Take `CCn1nc(Oc2ccc(C(F)(F)F)cc2)cc1-c1cccc(C(C)(C)NS(=O)(=O)NC)c1` [Example 24, N-[1-(3-{1-ethyl-3-[4-(trifluoromethyl)phenoxy]-1H-pyrazol-5-yl}phenyl)-1-methylethyl]-N′-methylsulfamide]: the 50% inhibitory concentration (IC50) is, setting by setting: under setting [1], below 200 nM; under setting [2], below 200 nM.
As to `CCn1nc(-c2cncc(C3(NS(=O)(=O)CC(F)(F)F)CC3)c2)cc1Oc1ccc(C(F)(F)F)cc1` [Example 52, N-[1-(5-{1-ethyl-5-[4-(trifluoromethyl)phenoxy]-1H-pyrazol-3-yl}pyridin-3-yl)cyclopropyl]-2,2,2-trifluoroethanesulfonamide], the IC50 was below 200 nM under setting [1] and below 200 nM under setting [2].
As to `CCn1nc(-c2cccc(C3(NS(=O)(=O)NC4CCC(F)(F)C4)COC3)c2)cc1Oc1ccc(C(F)(F)F)cc1` (centres unmarked) [Example 99], the IC50 was below 200 nM under setting [1] and below 200 nM under setting [2].

Source of the values: patent US8871796B2, “Diaryl ether derivatives as notch sparing gamma secretase inhibitors” (Merck Sharp & Dohme Corp., priority 2009, dated 2014).
